Assay results from patent US12528808B2, “Therapy for erythropoietic protoporphyria (EPP) and X-linked protoporphyria (XLP)” (UNIVERSITY OF PITTSBURGH-OF THE COMMONWEALTH SYSTEM OF …, priority 2019, dated 2026).
pIC50: −log10 of the molar value. “Also recorded” adds a separate entry of the source.

Assays:
[1] = Pharmacokinetic study in mice; type: in vivo; conditions: WT mice, 50 mg/kg by gavage, serum, FIG. 11
Experimental: Pharmacokinetic Study in Mice.
Blood was collected at 0, 0.25, 0.5, 1, 2, 4, 8, 12, 24 h after treatment. The concentration of target compound in serum was analyzed by UPLC-QTOFMS.

[2] = test system: Fech-mut mice; test: Efficacy against EPP-associated phototoxicity in vivo (Fech-mut mouse model)
Experimental: Efficacy of ABCG2 Inhibitors Against EPP-Associated Phototoxicity In Vivo.
The Fech-mut mouse model was used as an EPP model to determine the efficacy of ABCG2 inhibitors against EPP-associated phototoxicity, the most common symptom in EPP patients (6-8). […] After 5 days' treatment, all mice were sacrificed for evaluation of skin damage.
Thirty minutes after treatment, the mice were exposed to UV light for 30 minutes. The same treatment (drug plus light exposure) was repeated once daily for 4 days. From the 5th day, drug treatment was stopped, but the light exposure was continued for 4 more days. The gross appearance of mouse skin was recorded every day. On the 9th day, all mice were sacrificed and the back skin was collected for evaluation of phototoxicity.

[3] = Metabolic stability assay, incubation with human liver microsomes (HLM); type: in vitro ADME; conditions: remaining parent compound
Experimental: Metabolic Stability Assay.
After the incubation (0-60 min), the remaining parent compounds were analyzed by UPLC-QTOFMS.

[4] = target: T1, ABCG2 (Homo sapiens, UniProt Q9UNQ0); test: Protoporphyrin IX (PPIX)-based ABCG2 inhibition assay using the A549 cancer cell line; conditions: read-out: IC50, the half maximal inhibitory concentration
T1 construct: developed using the A549 cancer cell line; endogenous in cells; host or cells: A549 cancer cell line
T1 sequence (Q9UNQ0 1-655): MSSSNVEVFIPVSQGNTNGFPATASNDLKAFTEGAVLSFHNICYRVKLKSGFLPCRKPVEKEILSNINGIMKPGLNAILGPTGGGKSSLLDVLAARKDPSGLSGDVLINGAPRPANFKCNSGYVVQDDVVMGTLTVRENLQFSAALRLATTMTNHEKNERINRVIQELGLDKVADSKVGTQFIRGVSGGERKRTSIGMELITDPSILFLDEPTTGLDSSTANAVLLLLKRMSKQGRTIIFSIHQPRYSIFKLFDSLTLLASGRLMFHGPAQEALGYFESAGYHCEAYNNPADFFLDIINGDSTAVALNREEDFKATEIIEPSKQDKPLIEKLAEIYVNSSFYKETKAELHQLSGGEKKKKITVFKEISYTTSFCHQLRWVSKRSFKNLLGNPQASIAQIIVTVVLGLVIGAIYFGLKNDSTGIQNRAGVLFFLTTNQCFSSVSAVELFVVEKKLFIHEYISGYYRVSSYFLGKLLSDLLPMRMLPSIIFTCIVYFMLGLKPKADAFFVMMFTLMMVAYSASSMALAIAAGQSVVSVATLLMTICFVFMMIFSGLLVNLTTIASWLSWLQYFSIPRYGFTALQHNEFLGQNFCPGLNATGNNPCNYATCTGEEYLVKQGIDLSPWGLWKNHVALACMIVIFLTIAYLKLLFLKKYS
Description: A Protoporphyrin IX(PPIX)-based ABCG2 inhibition assay was developed using the A549 cancer cell line.

[5] = test system: RBCs of Fech-mut mice; test: Effect on PPIX efflux from RBCs; type: cell-based; conditions: 10 μM, FIG. 14
Description: Effects of ABCG2 Inhibitors on PPIX Efflux from RBCs.
PPIX in RBCs and culture medium was extracted, respectively, and analyzed by UPLC-QTOFMS.

[6] = MTT cytotoxicity assay
[7] = target: T2, carboxylesterase 1 (Homo sapiens, UniProt P23141); test: Hydrolysis of tert-butyl ester group by carboxylesterase 1; type: in vitro ADME
T2 sequence (P23141 18-567): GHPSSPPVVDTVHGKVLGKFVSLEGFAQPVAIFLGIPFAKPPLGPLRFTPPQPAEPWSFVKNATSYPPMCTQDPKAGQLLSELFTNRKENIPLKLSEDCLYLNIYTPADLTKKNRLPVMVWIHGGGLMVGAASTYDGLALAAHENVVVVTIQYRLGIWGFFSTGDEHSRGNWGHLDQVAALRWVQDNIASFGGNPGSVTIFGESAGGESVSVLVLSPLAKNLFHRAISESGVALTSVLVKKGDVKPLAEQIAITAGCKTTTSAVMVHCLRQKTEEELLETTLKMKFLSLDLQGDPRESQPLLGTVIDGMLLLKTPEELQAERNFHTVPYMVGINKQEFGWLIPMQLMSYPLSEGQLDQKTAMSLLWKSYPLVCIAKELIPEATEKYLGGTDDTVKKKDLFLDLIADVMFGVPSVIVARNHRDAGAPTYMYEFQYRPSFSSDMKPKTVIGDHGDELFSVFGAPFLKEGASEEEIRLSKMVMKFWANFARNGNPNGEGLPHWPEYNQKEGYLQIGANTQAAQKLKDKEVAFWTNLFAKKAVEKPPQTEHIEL

[8] = test system: WT and Abcg2-null mice; test: Chemically-induced PPIX accumulation and hepatotoxicity in WT and Abcg2-null mice; conditions: DDC 0.1% or GSF 2.5% in diet, two weeks
Experimental: Animal Studies to Determine the Role of ABCG2 in Chemically-Induced PPIX Accumulation and Hepatotoxicity
WT and Abcg2-null mice were treated with DDC (0.1% in diet) or GSF (2.5% in diet) for two weeks. In addition, hPXR and hPXR/Abcg2-null mice were treated with RIF (100 mg/Kg diet) and INH (400 mg/L drinking water) for four weeks. After the treatment, blood and liver samples were collected for evaluation of liver injury and analysis of PPIX.
Liver injury was evaluated by analyzing serum alanine aminotransaminase (ALT), aspartate aminotransferase (AST), alkaline phosphatase (ALP) (Pointe Scientific Canton, MI), and total bilirubin (Sigma-Aldrich, St. Louis, MO). These liver injury biomarkers were analyzed according to the standard procedures provided by the manufacturers. Blood toxicity was evaluated by analyzing mean corpuscular hemoglobin (MCH) (HESKA HemaTrue; Loveland, CO) and total hemoglobin (tHb) (AVOXimeter 4000; Edison, NJ).
Liver and skin tissues were first fixed in 4% formaldehyde phosphate solution overnight and then dehydrated and embedded in paraffin. […] sections were cut and stained. For hematoxylin and eosin (H&E) staining, tissue sections were stained in hematoxylin solution for 5 min, washed with tap water for 1 min, and then differentiated in 1% acetic acid solution for 1 min and followed by staining in eosin solution for 1 min. For Sirius Red Staining, tissue sections were stained in 0.1% PicroSirius Red solution for 1 h, and then washed with 1% acetic acid solution twice.

[9] = in vitro
[10] = read-out: CC50, the 50% cytotoxic concentration, MTT assay

HLM stability (% vs 0 min) 30 min [3] [%]	HLM stability (% vs 0 min) 60 min [3] [%]	pIC50 [4]	SMILES	CC50 [6, 10] [µM]	other results
65	49	6.57	COc1ccc2c3c([nH]c2c1)[C@H](CC(C)C)N1C(=O)[C@H](CC(=O)NC(C)C)NC(=O)[C@@H]1C3 [Compound K31, 2-((3S,6S,12aS)-6-isobutyl-9-methoxy-1,4-dioxo-1,2,3,4,6,7,12,12a-octahydropyrazino[1′,2′:1,6]pyrido[3,4-b]indol-3-yl)-N-isopropylacetamide]	> 100	pharmacokinetic profile ([1]; 50 mg/kg): better pharmacokinetic profiles than KO143; also recorded: ideal pharmacokinetic profile; protection from phototoxicity in EPP mouse model ([2]; Fech-mut mice pretreated 30 min, then UV light (395-410 nm) 30 min, 5 days, FIG. 12): fully protected the EPP mice from phototoxicity; phototoxicity after withdrawal (withdrawal test) ([2]; Fech-mut mice, 100 mg/kg po plus light day 1 to 4, light only from day 5, FIG. 13): showed phototoxicity soon after the withdrawal of K31; PPIX efflux from RBCs [5]: significantly inhibited PPIX efflux from RBCs
45	26	6.89	COc1ccc2c3c([nH]c2c1)[C@H](CC(C)C)N1C(=O)[C@H](CC(=O)NC2CCCCC2)NC(=O)[C@@H]1C3 [Compound K23, N-cyclohexyl-2-((3S,6S,12aS)-6-isobutyl-9-methoxy-1,4-dioxo-1,2,3,4,6,7,12,12a-octahydropyrazino[1′,2′:1,6]pyrido[3,4-b]indol-3-yl)acetamide]	46.6	–
–	–	–	COc1ccc2c3c([nH]c2c1)[C@H](CC(C)C)N1C(=O)[C@H](CCC(=O)OC(C)(C)C)NC(=O)[C@@H]1C3 [KO143, reference compound]	–	pharmacokinetic profile [1]: poor oral pharmacokinetic profile; stability (hydrolysis of tert-butyl ester group) [7]: very unstable
–	–	–	COc1ccc2c3c([nH]c2c1)[C@H](CC(C)C)N1C(=O)[C@H](CCC(=O)NC(C)C)NC(=O)[C@@H]1C3 [Compound K34, 3-((3S,6S,12aS)-6-isobutyl-9-methoxy-1,4-dioxo-1,2,3,4,6,7,12,12a-octahydropyrazino[1′,2′:1,6]pyrido[3,4-b]indol-3-yl)-N-isopropylpropanamide]	–	pharmacokinetic profile [1]: better pharmacokinetic profiles than KO143
74	60	6.74	COc1ccc2c3c([nH]c2c1)[C@H](CC(C)C)N1C(=O)[C@H](CC(=O)NC(C)(C)C)NC(=O)[C@@H]1C3 [Compound K3, N-(tert-butyl)-2-((3S,6S,12aS)-6-isobutyl-9-methoxy-1,4-dioxo-1,2,3,4,6,7,12,12a-octahydropyrazino[1′,2′:1,6]pyrido[3,4-b]indol-3-yl)acetamide]	58.9	–
7	7	–	COc1ccc2c3c([nH]c2c1)[C@H](CC(C)C)N1C(=O)[C@H](CCCCNC(=O)C(C)(C)C)N(C(=O)C(C)(C)C)C(=O)[C@@H]1C3 [Compound K11, N-(4-((3S,6S,12aS)-6-isobutyl-9-methoxy-1,4-dioxo-2-pivaloyl-1,2,3,4,6,7,12,12a-octahydropyrazino[1′,2′:1,6]pyrido[3,4-b]indol-3-yl)butyl)pivalamide]	–	CC50 [6]: 39.6 µM
–	–	5.50	COc1ccc2c3c([nH]c2c1)[C@H](CC(C)C)N1C(=O)[C@H](CC(=O)N2CCCCC2)NC(=O)[C@@H]1C3 [Compound K25, (3S,6S,12aS)-6-isobutyl-9-methoxy-3-(2-oxo-2-(piperidin-1-yl)ethyl)-2,3,12,12a-tetrahydropyrazino[1′,2′:1,6]pyrido[3,4-b]indole-1,4(6H,7H)-dione]	26.5	–
37	18	6.60	COc1ccc2c3c([nH]c2c1)[C@H](CC(C)C)N1C(=O)[C@H](CC(=O)NCc2ccccc2)NC(=O)[C@@H]1C3 [Compound K33, N-benzyl-2-((3S,6S,12aS)-6-isobutyl-9-methoxy-1,4-dioxo-1,2,3,4,6,7,12,12a-octahydropyrazino[1′,2′:1,6]pyrido[3,4-b]indol-3-yl)acetamide]	31.1	–
–	–	–	COC1=CC(=O)C[C@@H](C)[C@]12Oc1c(Cl)c(OC)cc(OC)c1C2=O [GSF, griseofulvin]	–	liver damage, PPIX accumulation, bile plugs ([8]; Abcg2-null mice): these effects failed to occur; liver damage, PPIX accumulation, bile plugs ([8]; WT mice): caused liver damage, PPIX accumulation, and bile plugs
–	–	–	COc1ccc2c3c([nH]c2c1)[C@H](CC(C)C)N1C(=O)[C@H](CCC(=O)NC(C)(C)C)NC(=O)[C@@H]1C3 [Compound K2, N-(tert-butyl)-3-((3S,6S,12aS)-6-isobutyl-9-methoxy-1,4-dioxo-1,2,3,4,6,7,12,12a-octahydropyrazino[1′,2′:1,6]pyrido[3,4-b]indol-3-yl)propanamide]	–	pharmacokinetic profile [1]: better pharmacokinetic profiles than KO143
–	–	–	CCOC(=O)C1=C(C)NC(C)=C(C(=O)OCC)C1C [DDC, 3,5-diethoxycarbonyl-1,4-dihydrocollidine]	–	liver damage, PPIX accumulation, bile plugs ([8]; Abcg2-null mice): these effects failed to occur; liver damage, PPIX accumulation, bile plugs ([8]; WT mice): caused liver damage, PPIX accumulation, and bile plugs

SMILES	HLM stability (% vs 0 min) 30 min [3] [%]	HLM stability (% vs 0 min) 60 min [3] [%]	pIC50 [4]	CC50 [6, 10] [µM]	other results
COc1ccc2c3c([nH]c2c1)[C@H](CC(C)C)N1C(=O)[C@H](CCCOC(C)(C)C)NC(=O)[C@@H]1C3 [Compound K7, (3S,6S,12aS)-3-(3-(tert-butoxy)propyl)-6-isobutyl-9-methoxy-2,3,12,12a-tetrahydropyrazino[1′,2′:1,6]pyrido[3,4-b]indole-1,4(6H,7H)-dione]	16	9	7.05	–	CC50 [9]: > 100 µM
